Laboratory results taken from patent publication US10385065B2, “Antibacterial compounds” (priority 2014, dated 2019).
Converted amounts (≈) assume the structure as drawn. Like-named read-outs stand apart in the source and are kept apart here.

What was measured:
Format in all cases: cell-based
[1] = tested on: human hepatic cell line (HepG2 ATCC HB-8065); assay: Human cell viability assay (CellTiter-Glo), HepG2; conditions: HepG2, 24 h incubation, tested over 1-128 μg/mL, read-out: IC50 values against HepG2
How it was run: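 HepG2 seeded at 20,000 cells/well, then after 24 h given two-fold serial dilutions (1-128 μg/mL, 1% DMSO) in DMEM with 0.001% FBS and 0.3% albumin. After 24 h at 37 °C, ATP luminescence (CellTiter-Glo) read; IC50 is the concentration halving viability.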

[2] = tested on: Staphylococcus aureus ATCC 29213; assay: MIC, broth microdilution, S. aureus ATCC 29213
[3] = tested on: S. aureus NRS127 MRSA LZD resistant; assay: MIC, S. aureus NRS127; conditions: Staphylococcus aureus; Table 2
[4] = tested on: S. aureus VRS1 MRSA VAN resistant; assay: MIC, S. aureus VRS1; conditions: Staphylococcus aureus, Table 2
[5] = tested on: S. aureus (MRSA) ATCC 43300; assay: MIC, S. aureus ATCC 43300; conditions: Staphylococcus aureus; Table 2; read-out: MIC S. aureus (MRSA) ATCC 43300 Heterogeneous MRSA strain
[6] = tested on: Escherichia coli ATCC 25922; assay: MIC, broth microdilution, E. coli ATCC 25922; conditions: ATCC25922, Table 1, wild type strain
[7] = tested on: Haemophilus influenzae ATCC 49247; assay: MIC, H. influenzae ATCC 49247; conditions: ATCC49247, Table 4
[8] = tested on: S. aureus NRS482 MRSA FQ resistant; assay: MIC, S. aureus NRS482; conditions: Staphylococcus aureus; Table 2
S. aureus NRS1 MRSA = assay: MIC, S. aureus NRS1; conditions: Staphylococcus aureus; Table 2; read-out: MIC S. aureus NRS1 MRSA AMG & TET resistant
[9] = tested on: Legionella pneumophila ATCC 33152; assay: microbe, parasite or virus in culture; conditions: ATCC33152, 48 h, read-out: MIC Legionella pneumophila ATCC 33152
[10] = tested on: Enterococcus faecium ATCC 19434; assay: MIC, E. faecium ATCC 19434; conditions: ATCC19434, Table 2
[11] = tested on: S. aureus SACPX1-SP25 MSSA - FQ resistant; assay: microbe, parasite or virus in culture; conditions: Staphylococcus aureus, ATCC 29213 / MSSA, read-out: MIC S. aureus SACPX1-SP25 MSSA - FQ resistant (isogenic mutant of ATCC 29213)
[12] = tested on: Moraxella catarrhalis ATCC 25240; assay: MIC, M. catarrhalis ATCC 25240; conditions: ATCC25240, Table 4
[13] = tested on: Neisseria gonorrhoeae ATCC 49226; assay: MIC, N. gonorrhoeae ATCC 49226; conditions: ATCC49226, Table 4, 24 h incubation
[14] = tested on: S. epidermidis NRS101 MRSE; assay: MIC, S. epidermidis NRS101; conditions: Staphylococcus epidermidis; Table 2; read-out: MIC S. epidermidis NRS101 MRSE AMG, ERY resistant
[15] = tested on: Neisseria meningitidis ATCC 13090; assay: MIC, N. meningitidis ATCC 13090; conditions: ATCC13090, Table 4, 24 h incubation
S. aureus NRS70 MRSA = assay: MIC, S. aureus NRS70; conditions: Staphylococcus aureus; Table 2
[16] = tested on: S. aureus NRS107 MUP resistant; assay: MIC, S. aureus NRS107; conditions: Staphylococcus aureus, Table 2
S. aureus NRS100 MRSA = assay: MIC, S. aureus NRS100; conditions: Staphylococcus aureus; Table 2
[17] = ATCC29213, Table 1, wild type strain, read-out: MIC S. aureus ATCC 29213
[18] = ATCC 29213 / MSSA, Table 2, read-out: MIC S. aureus (MSSA) ATCC 29213 CLSI control strain

Row | SMILES | IC50 [1] [mg/L] | MIC [2, 17] [mg/L] | MIC [2, 18] [mg/L] | MIC [3] [mg/L] | MIC [4] [mg/L] | MIC [5] [mg/L] | MIC [6] [mg/L] | MIC [7] [mg/L] | MIC [8] [mg/L] | MIC (S. aureus NRS1 MRSA) [mg/L] | MIC [9] [mg/L] | MIC [10] [mg/L] | MIC [11] [mg/L] | MIC [12] [mg/L] | MIC [13] [mg/L] | MIC [14] [mg/L] | MIC [15] [mg/L] | MIC (S. aureus NRS70 MRSA) [mg/L] | MIC [16] [mg/L] | MIC (S. aureus NRS100 MRSA) [mg/L]
1 | Cc1nc2c(=O)n3c4c(c(N5CC[C@H](CN)C5)c(F)cc4c2o1)OC[C@@H]3C [Compound 89, (2S)-6-[(3R)-3-(aminomethyl)pyrrolidin-1-yl]-7-fluoro-2,12-dimethyl-4,11-dioxa-1,13-diazatetracyclo[7.6.1.0^5,^16.0^10,^14]hexadeca-5(16),6,8,10(14),12-pentaen-15-one] | 10 to 100 (≈ 26.9 to 269 µM) | 1 to 10 (≈ 2.69 to 26.9 µM) | 1 to 10 (≈ 2.69 to 26.9 µM) | 10 to 100 (≈ 26.9 to 269 µM) | 1 to 10 (≈ 2.69 to 26.9 µM) | 1 to 10 (≈ 2.69 to 26.9 µM) | 1 to 10 (≈ 2.69 to 26.9 µM) | 1 to 10 (≈ 2.69 to 26.9 µM) | 1 to 10 (≈ 2.69 to 26.9 µM) | 1 to 10 (≈ 2.69 to 26.9 µM) | 1 to 10 (≈ 2.69 to 26.9 µM) | 10 to 100 (≈ 26.9 to 269 µM) | 1 to 10 (≈ 2.69 to 26.9 µM) | – | – | – | – | – | – | –
2 | Cc1nc2c(=O)n3c4c(c(N5CC[C@@H](CN)C5)c(F)cc4c2o1)OC[C@@H]3C [Compound 90, (2S)-6-[(3S)-3-(aminomethyl)pyrrolidin-1-yl]-7-fluoro-2,12-dimethyl-4,11-dioxa-1,13-diazatetracyclo[7.6.1.0^5,^16.0^10,^14]hexadeca-5(16),6,8,10(14),12-pentaen-15-one] | 10 to 100 (≈ 26.9 to 269 µM) | < 1 | < 1 | 1 to 10 (≈ 2.69 to 26.9 µM) | 10 to 100 (≈ 26.9 to 269 µM) | < 1 | 1 to 10 (≈ 2.69 to 26.9 µM) | 1 to 10 (≈ 2.69 to 26.9 µM) | 1 to 10 (≈ 2.69 to 26.9 µM) | 1 to 10 (≈ 2.69 to 26.9 µM) | 1 to 10 (≈ 2.69 to 26.9 µM) | – | 1 to 10 (≈ 2.69 to 26.9 µM) | 1 to 10 (≈ 2.69 to 26.9 µM) | – | – | – | – | – | –
3 | C[C@H]1COc2c(-c3cc(F)c(N)cc3F)ccc3c4ocnc4c(=O)n1c23 [Compound 93, (2S)-6-(4-amino-2,5-difluorophenyl)-2-methyl-4,11-dioxa-1,13-diazatetracyclo[7.6.1.0^5,^16.0^10,^14]hexadeca-5(16),6,8,10(14),12-pentaen-15-one] | > 100 | 1 to 10 (≈ 2.71 to 27.1 µM) | 1 to 10 (≈ 2.71 to 27.1 µM) | – | 1 to 10 (≈ 2.71 to 27.1 µM) | < 1 | 1 to 10 (≈ 2.71 to 27.1 µM) | < 1 | 1 to 10 (≈ 2.71 to 27.1 µM) | – | < 1 | 10 to 100 (≈ 27.1 to 271 µM) | 1 to 10 (≈ 2.71 to 27.1 µM) | 1 to 10 (≈ 2.71 to 27.1 µM) | < 1 | – | – | – | – | –
4 | C[C@H]1COc2c(-c3ccc(N)nc3)ccc3c4ocnc4c(=O)n1c23 [Compound 95, (-2S)-6-(6-aminopyridin-3-yl)-2-methyl-4,11-dioxa-1,13-diazatetracyclo[7.6.1.0^5,^16.0^10,^14]hexadeca-5(16),6,8,10(14),12-pentaen-15-one] | > 100 | 1 to 10 (≈ 2.99 to 29.9 µM) | 1 to 10 (≈ 2.99 to 29.9 µM) | 1 to 10 (≈ 2.99 to 29.9 µM) | 1 to 10 (≈ 2.99 to 29.9 µM) | 1 to 10 (≈ 2.99 to 29.9 µM) | 1 to 10 (≈ 2.99 to 29.9 µM) | < 1 | 1 to 10 (≈ 2.99 to 29.9 µM) | 1 to 10 (≈ 2.99 to 29.9 µM) | – | 10 to 100 (≈ 29.9 to 299 µM) | – | – | – | 1 to 10 (≈ 2.99 to 29.9 µM) | – | – | – | –
5 | Cc1c(-c2cc(F)c(N)cc2F)ccc2c3oc(CN)nc3c(=O)n(C3CC3)c12 [Compound 100, 7-(4-amino-2,5-difluoro-phenyl)-2-(aminomethyl)-5-cyclopropyl-6-methyl-oxazolo[4,5-c]quinolin-4-one] | > 100 | < 1 | < 1 | 1 to 10 (≈ 2.52 to 25.2 µM) | 1 to 10 (≈ 2.52 to 25.2 µM) | < 1 | < 1 | < 1 | < 1 | < 1 | < 1 | 1 to 10 (≈ 2.52 to 25.2 µM) | < 1 | < 1 | < 1 | < 1 | < 1 | – | – | –
6 | Cc1c(-c2cc(F)c(N)cc2F)ccc2c3scnc3c(=O)n(C3CC3)c12 [Compound 108, 7-(4-amino-2,5-difluorophenyl)-5-cyclopropyl-6-methyl-thiazolo[4,5-c]quinolin-4-one] | 10 to 100 (≈ 26.1 to 261 µM) | < 1 | < 1 | < 1 | < 1 | < 1 | 1 to 10 (≈ 2.61 to 26.1 µM) | < 1 | < 1 | < 1 | – | 10 to 100 (≈ 26.1 to 261 µM) | < 1 | – | – | < 1 | – | – | – | –
7 | Cc1onc(-c2ccccc2)c1C(=O)N[C@@H]1C(=O)N2[C@@H]1SC(C)(C)[C@@H]2C(=O)O [Oxacillin, reference compound] | 10 to 100 (≈ 24.9 to 249 µM) | – | < 1 | < 1 | < 1 | < 1 | – | > 100 | – | > 100 | – | 10 to 100 (≈ 24.9 to 249 µM) | 1 to 10 (≈ 2.49 to 24.9 µM) | – | – | 1 to 10 (≈ 2.49 to 24.9 µM) | – | 10 to 100 (≈ 24.9 to 249 µM) | < 1 | > 100
